Measurements taken from publication PMC7730961, “Discovery of Novel Dual Extracellular Regulated Protein Kinases (ERK) and Phosphoinositide 3-Kinase (PI3K) Inhibitors as a Promising Strategy for Cancer Therapy” (Molecules, 2020).
Where a name gives a salt, the structure may show the parent alone. Read-outs that look alike come from different tables or passages of the source.

Key:
[1] = biological target: PI3Kα (Homo sapiens, UniProt P42336); test: Enzymatic inhibition assay (ADP-Glo Plus luminescence kinase assay), PI3Kα; type: biochemical; conditions: for inhibition at 1 µM: 1 μM (1000 nM) compound
Chain of PI3Kα (P42336 whole entry): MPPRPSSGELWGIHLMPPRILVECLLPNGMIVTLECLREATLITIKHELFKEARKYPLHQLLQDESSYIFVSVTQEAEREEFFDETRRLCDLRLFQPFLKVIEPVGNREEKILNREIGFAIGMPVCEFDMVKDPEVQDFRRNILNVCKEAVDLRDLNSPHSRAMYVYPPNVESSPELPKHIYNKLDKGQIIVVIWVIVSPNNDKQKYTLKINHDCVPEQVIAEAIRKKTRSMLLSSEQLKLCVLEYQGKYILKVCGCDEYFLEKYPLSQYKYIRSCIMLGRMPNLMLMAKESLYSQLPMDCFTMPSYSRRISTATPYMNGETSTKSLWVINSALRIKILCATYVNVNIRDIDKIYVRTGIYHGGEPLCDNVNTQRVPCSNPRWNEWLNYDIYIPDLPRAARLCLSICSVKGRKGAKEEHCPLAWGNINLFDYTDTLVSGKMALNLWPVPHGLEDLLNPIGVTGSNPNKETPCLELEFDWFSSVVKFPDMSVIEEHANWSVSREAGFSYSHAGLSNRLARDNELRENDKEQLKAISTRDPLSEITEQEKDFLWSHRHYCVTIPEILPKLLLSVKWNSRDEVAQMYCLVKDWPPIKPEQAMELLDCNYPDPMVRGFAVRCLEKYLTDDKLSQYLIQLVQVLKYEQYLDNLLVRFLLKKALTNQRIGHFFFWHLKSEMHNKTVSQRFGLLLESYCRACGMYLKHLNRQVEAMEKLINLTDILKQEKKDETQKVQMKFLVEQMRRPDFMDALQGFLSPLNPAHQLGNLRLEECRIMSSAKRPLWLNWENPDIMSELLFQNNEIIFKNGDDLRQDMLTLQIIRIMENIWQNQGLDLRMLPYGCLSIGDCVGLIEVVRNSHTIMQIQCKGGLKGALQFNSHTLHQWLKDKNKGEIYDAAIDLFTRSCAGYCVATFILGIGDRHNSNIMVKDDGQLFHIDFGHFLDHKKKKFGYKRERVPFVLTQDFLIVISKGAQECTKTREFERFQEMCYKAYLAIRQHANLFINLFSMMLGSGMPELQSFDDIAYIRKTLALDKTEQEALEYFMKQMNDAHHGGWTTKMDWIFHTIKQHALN
Chain of PI3Kα (P27986 whole entry partner): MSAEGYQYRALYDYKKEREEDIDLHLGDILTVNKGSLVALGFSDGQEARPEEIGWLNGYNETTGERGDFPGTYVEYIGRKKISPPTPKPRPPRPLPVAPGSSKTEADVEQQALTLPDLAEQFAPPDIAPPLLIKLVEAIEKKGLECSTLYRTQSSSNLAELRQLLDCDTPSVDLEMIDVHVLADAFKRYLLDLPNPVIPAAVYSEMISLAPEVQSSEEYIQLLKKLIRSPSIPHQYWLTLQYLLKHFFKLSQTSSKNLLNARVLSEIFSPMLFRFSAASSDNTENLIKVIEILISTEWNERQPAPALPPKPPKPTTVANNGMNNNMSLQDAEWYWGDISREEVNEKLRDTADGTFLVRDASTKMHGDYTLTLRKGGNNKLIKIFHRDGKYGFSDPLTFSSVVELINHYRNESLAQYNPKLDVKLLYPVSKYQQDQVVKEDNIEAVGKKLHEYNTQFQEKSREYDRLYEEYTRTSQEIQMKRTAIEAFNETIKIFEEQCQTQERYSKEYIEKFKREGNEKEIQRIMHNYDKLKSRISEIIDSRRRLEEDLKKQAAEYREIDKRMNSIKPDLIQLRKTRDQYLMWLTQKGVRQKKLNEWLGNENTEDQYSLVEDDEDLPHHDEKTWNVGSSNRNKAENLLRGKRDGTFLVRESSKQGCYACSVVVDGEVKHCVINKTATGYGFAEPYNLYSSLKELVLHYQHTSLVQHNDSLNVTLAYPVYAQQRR
Protocol: The 50 µL reaction mixture contains 40 mM Tris-HCl, pH 7.4, 10 µM ATP, 10 mM MgCl2, 0.1 mg/mL BSA, 1 mM DTT, 0.2 ug/mL ERK 2, ERK 1, PI3Kα, PI3Kβ, PI3Kγ or PI3Kδ and 100 uM lipid substrate. All compounds were diluted in 10% DMSO and tested in 10-dose with 3-fold serial dilution starting at a concentration of 1 μM. Of the dilution, 5 µL was added to a 50 µL reaction so that the final concentration of DMSO is 1% in all of reactions. After all of the reaction mixtures were conducted at 30 °C for 40 min, the assay was performed using ADP-Glo Plus luminescence kinase assay kit. The luminescence signal and the intensity of the luminescence signal value were detected using a multi-well spectrophotometer (the MD-SpectraMax M5 multifunctional microplate reader). It was directly proportional to the […] enzyme activity. The experimental results were converted into active percentages, a dose-response curve is drawn, and the IC50 value of inhibition was calculated using […] PRISM 5 nonlinear regression.

[2] = biological target: ERK 2 (Homo sapiens, UniProt P28482); test: Enzymatic inhibition assay (ADP-Glo Plus luminescence kinase assay), ERK2; type: biochemical; conditions: for inhibition at 1 µM: 1 μM (1000 nM) compound
Chain of ERK 2 (P28482 whole entry): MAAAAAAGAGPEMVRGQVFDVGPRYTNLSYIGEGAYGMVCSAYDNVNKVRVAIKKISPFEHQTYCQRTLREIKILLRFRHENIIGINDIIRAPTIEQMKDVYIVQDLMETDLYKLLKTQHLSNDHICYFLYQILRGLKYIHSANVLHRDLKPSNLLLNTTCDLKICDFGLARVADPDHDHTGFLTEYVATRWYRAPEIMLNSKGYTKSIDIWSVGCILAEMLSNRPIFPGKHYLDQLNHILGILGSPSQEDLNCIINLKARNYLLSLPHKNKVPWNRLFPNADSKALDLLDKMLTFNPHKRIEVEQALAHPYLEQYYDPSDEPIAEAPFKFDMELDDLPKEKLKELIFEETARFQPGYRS
Protocol: All compounds were diluted in 10% DMSO and tested in 10-dose with 3-fold serial dilution starting at a concentration of 1 μM. Of the dilution, 5 µL was added to a 50 µL reaction so that the final concentration of DMSO is 1% in all of reactions. After all of the reaction mixtures were conducted at 30 °C for 40 min, the assay was performed using ADP-Glo Plus luminescence kinase assay kit. The luminescence signal and the intensity of the luminescence signal value were detected using a multi-well spectrophotometer (the MD-SpectraMax M5 multifunctional microplate reader). It was directly proportional to the inhibition of enzyme activity.

[3] = In vivo pharmacokinetic study in SD rats; parameters: species or system Sprague Dawley rats; conditions: for MRT last: read-out: MRT0–t
Protocol: The pharmacokinetic experiment was conducted by using 180–220 g male Sprague Dawley rats (purchased from Weitong Lihua Experimental Animal Co., Ltd., Beijing, China). The experimental animals were raised in a well-ventilated, air-conditioned standard animal room where the temperature was maintained at 20–25 °C, the humidity was maintained at 40–70%, and the light and dark were rotated for 12 h each. After about 5 days of normal feeding, rats with good physical signs can enter this experiment after veterinary inspection. All rats were fasted for 12 h before the start of the animal experiment. The 32d was dissolved in a mixture of 40% DMSO + 40% PEG400 + 20% 5% glucose injection at a concentration of 1 mg/mL (1 mg/kg). The 32d was administered to the […] by p.o. (0.2 mg/mL, 10 mg/kg), and blood samples (about 0.25 mL) were collected from the posterior orbital venous plexus after different time points (i.v.: 2 min, 15 min, 30 min, 1 h, 2 h, 4 h, 6 h, 8 h, and 12 h; po: 5 min, 15 min, 30 min, 1 h, 2 h, 4 h, 6 h, 8 h, 12 h, and 24 h) after dosing, with three […] for each time point. The whole plasma samples were kept frozen at −20 °C until LC/MS/MS analysis after centrifugation. WinNolin 8.2 software was used to calculate pharmacokinetic parameters, and GraphPad Prism 8.0 was used to draw plasma concentration-time curves.

[4] = In vitro pharmacokinetic study, oxidation metabolism in human liver microsomes; type: in vitro ADME; conditions: n = 3
Protocol: The pharmacokinetic experiment was conducted by using human liver microsome (purchased from Research Institute for Liver Diseases (Shanghai) Co., Ltd., Shanghai, China). The reaction mixture contained 100 μL PBS, 40 μL liver microsome and 20 μL dilution of compound 32d. After the reaction mixtures were preconducted at 37 °C for 5 min, 40 μL NADPH solution was added to start pharmacokinetic reaction, and samples were collected at different time points (5 min, 10 min, 15 min, 30 min and 45 min). Then, 100 μL of ethyl acetate was added to stop the reaction. The whole samples were added in 10 μL of an internal standard (Phenacetin) to shake for 10 min and centrifuge at 10,000 rpm for 10 min and then taken out 300 μL of supernatant.for LC/MS/MS analysis. WinNolin 8.2 software was used to calculate pharmacokinetic parameters, and GraphPad Prism 8.0 was used to draw concentration-time curves.

[5] = test system: HCT-116 xenograft; test: In vivo antitumor activity, HCT-116 xenograft in nude mice; parameters: species or system Balb/c-nude mice; conditions: intraperitoneal once daily, 21 days, 32d 5 mg/kg, BVD-523 5 mg/kg, GDC-0980 1 mg/kg; for TGI (tumor growth inhibitory rate): nude mice, combination 2.5 mg/kg + 0.5 mg/kg
Protocol: Male five-week-old Balb/c-nude mice (18–20 g) were injected subcutaneously with HCT-116 cells (5 × 10^7/mL cells suspended in Matrigel Matrix). […] All mice were administered by intraperitoneal q.d. The tumor volumes were measured using electronic digital calipers every 3 days and were calculated as 1/2 length × width × width.

[6] = test system: HEC1B; test: Anti-proliferation assay (MTT, 72 h), HEC1B; type: cell-based; conditions: Homo sapiens, HEC-1B, HEC1B cells
Protocol: (§1) Human cancer cell lines HCT116 and HEC1B were cultured in media with 10% FBS (GIBCO, Invitrogen Corporation, NY, USA) at 37 °C in a 5% (v/v) CO2 humidified incubator. The logarithmic growth phase cells were seeded in a 96-well plate with a density of 1 × 10^5 cells/mL, cultured at 37 °C, 5% CO2. Until the cells were 90% confluent, the medium containing compound was added to incubate for 72 h, and then the cell viability was tested by MTT analysis. Taking the drug concentration as the abscissa and the percentage of proliferation inhibitory activity corresponding to each concentration as the ordinate, using Graphpad Prism 5 to do nonlinear regression, the IC50 value of each compound was calculated.

[7] = test system: HCT116; test: Anti-proliferation assay (MTT, 72 h), HCT116; type: cell-based; conditions: Homo sapiens, HCT-116, HCT116 cells
Protocol: as §1

[8] = Solubility; type: physicochemical; conditions: relative to parent after introducing a hydrophilic group at the pyrazole NH
[9] = male, Sprague-Dawley, rat, plasma, iv, i.v. 1 mg/kg
[10] = male, Sprague-Dawley, rat, plasma, po, p.o. 10 mg/kg

In the case of “1-Cyclopentyl-3-(7-(2-methylpyridin-4-yl)pyrido[3,2-d]pyrimidin-2-yl)urea [32k]”, the “PI3Kα Inhibition% (100 nM)” value ([1]; 100 nM compound) is reported as 15.3% and the “ERK2 Inhibition% (100 nM)” value ([2]; 100 nM compound) is reported as 66.5%.
`Cc1cc(-c2n[nH]c3nc(NC(=O)NCc4ccccc4)ncc23)ccn1` [16a, 1-Benzyl-3-(3-(2-methylpyridin-4-yl)-1H-pyrazolo[3,4-d]pyrimidin-6-yl)urea] showed an inhibition at 1 µM [1] of 8.7% and an inhibition at 1 µM [2] of 98.3%.
Work on `Cc1cc(-c2n[nH]c3nc(NC(=O)NC4CCCC4)ncc23)ccn1` [16b, 1-Cyclopentyl-3-(3-(2-methylpyridin-4-yl)-1H-pyrazolo[3,4-d]pyrimidin-6-yl)urea] yielded an inhibition at 1 µM [1] of 27.4% and an inhibition at 1 µM [2] of 84.8%.
Compound `Cn1cc(-c2n[nH]c3nc(NC(=O)NCc4ccccc4)ncc23)cn1` [16c, 1-Benzyl-3-(3-(1-methyl-1H-pyrazol-4-yl)-1H-pyrazolo[3,4-d]pyrimidin-6-yl)urea] has an inhibition at 1 µM [1] of 1.8% and an inhibition at 1 µM [2] of 97.2%.
Compound `Cn1cc(-c2n[nH]c3nc(NC(=O)NC4CCCC4)ncc23)cn1` [16d, 1-Cyclopentyl-3-(3-(1-methyl-1H-pyrazol-4-yl)-1H-pyrazolo[3,4-d]pyrimidin-6-yl)urea] has an inhibition at 1 µM [1] of 4% and an inhibition at 1 µM [2] of 79.5%.
`Cc1cc(-c2cnc3cnc(NC(=O)NC4CCCC4)nc3c2)ccn1` [32b, 1-Cyclopentyl-3-(7-(2-methylpyridin-4-yl)pyrido[3,2-d]pyrimidin-2-yl)urea] gave an inhibition at 0.1 µM ([1]; 100 nM compound) of 10.5% and an inhibition at 0.1 µM ([2]; 100 nM compound) of 53.7%.
Compound `O=C(Nc1ncc2ncc(-c3cccc(OC(F)(F)F)c3)cc2n1)NC1CCCC1` [32c, 1-Cyclopentyl-3-(7-(3-(trifluoromethoxy)phenyl)pyrido[3,2-d]pyrimidin-2-yl)urea] has an inhibition at 0.1 µM ([1]; 100 nM compound) of -11.3% and an inhibition at 0.1 µM ([2]; 100 nM compound) of 1.6%.
In the case of `O=C(Nc1ncc2ncc(-c3cn[nH]c3)cc2n1)NC1CCCC1` [32d, 1-(7-(1H-pyrazol-4-yl)pyrido[3,2-d]pyrimidin-2-yl)-3-cyclopentylurea], the AUC(0-inf) [3, 9] is reported as 379 ng·h/mL, the AUC(0-t) [3, 9] is reported as 368 ng·h/mL and the Cmax [3, 9] is reported as 1310 ng/mL. For the same compound, the clearance [3, 9] was 44.8 mL/min/kg, the half-life [3, 9] was 2.32 h and the MRT last [3, 9] was 0.99 h. For the same compound, the Vd ([3]; male, Sprague-Dawley, rat, plasma, iv, i.v. 1 mg/kg, read-out: Vz) was 9.12 L/kg, the bioavailability ([3]; male, Sprague-Dawley, rat, plasma, oral, p.o. 10 mg/kg vs i.v. 1 mg/kg, read-out: oral bioavailability (F)) was 9.37% and the AUC(0-inf) [3, 10] was 355 ng·h/mL. It also gave an AUC(0-t) [3, 10] of 192 ng·h/mL, a Cmax [3, 10] of 129 ng/mL and a half-life [3, 10] of 2.65 h. The MRT last [3, 10] was 2.93 h, the CL ([3]; p.o. 10 mg/kg) was 727.9 mL/min/kg and the Vz ([3]; p.o. 10 mg/kg) was 244.74 L/kg. It also gave a K ([4]; 90 ng/mL) of 0.004 min⁻¹, a half-life at 90 ng/mL [4] of 2.89 h and a microsomal CLint at 90 ng/mL [4] of 16 µL/min/mg. The “body weight of nude mice during treatment” value (“body weight” below) [5] was “no observed body weight loss”, the “TGI (tumor growth inhibitory rate)” value [5] was 51% and the IC50 [1] was 0.059 µM. The inhibition at 0.1 µM ([1]; 100 nM compound) was 51.4%, the IC50 [6] was 1.49 µM and the IC50 [2] was 0.073 µM. It also gave an inhibition at 0.1 µM ([2]; 100 nM compound) of 49.3% and an IC50 [7] of 0.726 µM.
Compound `O=C(Nc1ncc2ncc(-c3ccnc(F)c3)cc2n1)NC1CCCC1` [32e, 1-Cyclopentyl-3-(7-(2-fluoropyridin-4-yl)pyrido[3,2-d]pyrimidin-2-yl)urea] has an inhibition at 0.1 µM ([1]; 100 nM compound) of 7% and an inhibition at 0.1 µM ([2]; 100 nM compound) of 35.4%.
`O=C(Nc1ncc2ncc(C3=CCNCC3)cc2n1)NC1CCCC1` [32f, 1-Cyclopentyl-3-(7-(1,2,3,6-tetrahydropyridin-4-yl)pyrido[3,2-d]pyrimidin-2-yl)urea hydrochloride] showed an inhibition at 0.1 µM ([1]; 100 nM compound) of -8.8% and an inhibition at 0.1 µM ([2]; 100 nM compound) of 0.4%.
For `Cn1cc(-c2cnc3cnc(NC(=O)NCc4ccccc4)nc3c2)cn1` [32g, 1-Benzyl-3-(7-(1-methyl-1H-pyrazol-4-yl)pyrido[3,2-d]pyrimidin-2-yl)urea], the IC50 [1] was 0.824 µM, the inhibition at 0.1 µM ([1]; 100 nM compound) was 32.4% and the IC50 [6] was 2.27 µM. For the same compound, the IC50 [2] was 0.083 µM, the inhibition at 0.1 µM ([2]; 100 nM compound) was 55.2% and the IC50 [7] was 10 µM.
Compound `Cn1cc(-c2cnc3cnc(NC(=O)Nc4ccccc4)nc3c2)cn1` [32h, 1-(7-(1-Methyl-1H-pyrazol-4-yl)pyrido[3,2-d]pyrimidin-2-yl)-3-phenylurea] has an inhibition at 0.1 µM ([1]; 100 nM compound) of 24.9% and an inhibition at 0.1 µM ([2]; 100 nM compound) of 17.2%.
In the case of `CCNC(=O)Nc1ncc2ncc(-c3cnn(C)c3)cc2n1` [32i, 1-Ethyl-3-(7-(1-methyl-1H-pyrazol-4-yl)pyrido[3,2-d]pyrimidin-2-yl)urea], the inhibition at 0.1 µM ([1]; 100 nM compound) is reported as 33.4% and the inhibition at 0.1 µM ([2]; 100 nM compound) is reported as 22.1%.
`Cn1cc(-c2cnc3cnc(NC(=O)NCCN4CCOCC4)nc3c2)cn1` [32j, 1-(7-(1-Methyl-1H-pyrazol-4-yl)pyrido[3,2-d]pyrimidin-2-yl)-3-(2-morpholinoethyl)urea] gave an inhibition at 0.1 µM ([1]; 100 nM compound) of 15.1% and an inhibition at 0.1 µM ([2]; 100 nM compound) of 6.2%.
For `CN(C)CCn1cc(-c2cnc3cnc(NC(=O)NC4CCCC4)nc3c2)cn1` [32m, 1-Cyclopentyl-3-(7-(1-(2-(dimethylamino)ethyl)-1H-pyrazol-4-yl)pyrido[3,2-d]pyrimidin-2-yl) urea], the inhibition at 0.1 µM ([1]; 100 nM compound) was 41%, the inhibition at 0.1 µM ([2]; 100 nM compound) was 8.4% and the solubility [8] was “ameliorated”.
For `CC(C)Nc1cc(-c2c[nH]c(C(=O)N[C@H](CO)c3cccc(Cl)c3)c2)c(Cl)cn1` [BVD-523, reference compound], the “body weight” value [5] was “losing”, the “TGI (tumor growth inhibitory rate)” value [5] was 50% and the IC50 [6] was 18 µM. The inhibition at 0.1 µM ([2]; 100 nM compound) was 97.7%, the inhibition at 1 µM [2] was 97.7% and the IC50 [7] was 0.321 µM.
With `Cc1c(CN2CCN(C(=O)[C@H](C)O)CC2)sc2c(N3CCOCC3)nc(-c3cnc(N)nc3)nc12` [GDC-0980, reference compound] the “body weight” value [5] was “losing”, the “TGI (tumor growth inhibitory rate)” value [5] was 46% and the IC50 [6] was 0.23 µM. For the same compound, the IC50 [7] was 1.06 µM.
`Cn1cc(-c2cnc3nc(NC(=O)NC4CCCC4)ncc3c2)cn1` [compound 24, 1-Cyclopentyl-3-(6-(1-methyl-1H-pyrazol-4-yl)pyrido[2,3-d]pyrimidin-2-yl)urea] showed an inhibition at 1 µM [1] of 15.1% and an inhibition at 1 µM [2] of 1.8%.
